Measurements as given in patent US9597314B2, “Beta-lactamylalkanoic acids for treating premenstrual disorders” (AZEVAN PHARMACEUTICALS, INC., priority 2005, dated 2017).

Biological target: V1a (Homo sapiens, UniProt P37288)
Assay: Human vasopression V1a receptor binding assay
Design: host or cells: CHO cells (hV1a cell line), whole adherent cells
Settings: hV1a cell line (CHO); for IC50: 1 nM 3H-AVP, Table 17, read-out: V1a Binding Affinity (IC50 (nM)); for Ki: Table 18
Method: Human vasopression V1a receptor binding assay. A cell line expressing the human V1a receptor in CHO cells (henceforth referred to as the hV1a cell line) was obtained from Dr. Michael Brownstein, NIMH, Bethesda, Md., USA. The hV1a cDNA sequence is described by Thibonnier et al., Journal of Biological Chemistry, 269, 3304-3310 (1994), and the expression method was the same as described by Morel et al. (1992). The hV1a cell line was grown in alpha-MEM with 10% fetal bovine serum and 250 ug/ml G418 (Gibco, Grand Island, N.Y., USA). For competitive binding assay, hV1a cells were plated into 6-well culture plate at 1:10 dilution from a confluency flask, and maintained in culture for at least two days. Culture medium was then removed, cells were washed with 2 ml binding buffer (25 mM Hepes, 0.25% BSA, 1×DMEM, PH=7.0). To each well, 990 μl binding buffer containing 1 nM 3H-AVP was added, and followed by 10 μl series diluted Example compounds dissolved in DMSO. […] 100 nM cold AVP (Sigma) was used to assess non-specific binding. Cells were incubated for 45 minutes at 37° C., assay mixture was removed and each well was washed three times with PBS (pH=7.4). 1 ml 2% SDS was added per well and plates were let sit for 30 minutes. The whole content in a well was transferred to a scintillation vial. Each well was rinsed with 0.5 ml PBS which was then added to the corresponding vial. Scintillation fluid (Ecoscint, National Diagnostics, Atlanta, Ga.) was then added at 3 ml per vial. Samples were counted in a liquid scintillation counter (Beckman LS3801). IC50 values were calculated by Prism Curve fitting software.
All of the alkanedioic esters and amides exemplified in the foregoing examples dissolved in DMSO were tested in this assay. Binding curves were generated according to methods described by Thibonnier et al. (1994). [^3H]-AVP was added to the hV1a cell cultures followed by 10 fold dilutions of each test compound.

Chain of V1a (P37288 whole entry): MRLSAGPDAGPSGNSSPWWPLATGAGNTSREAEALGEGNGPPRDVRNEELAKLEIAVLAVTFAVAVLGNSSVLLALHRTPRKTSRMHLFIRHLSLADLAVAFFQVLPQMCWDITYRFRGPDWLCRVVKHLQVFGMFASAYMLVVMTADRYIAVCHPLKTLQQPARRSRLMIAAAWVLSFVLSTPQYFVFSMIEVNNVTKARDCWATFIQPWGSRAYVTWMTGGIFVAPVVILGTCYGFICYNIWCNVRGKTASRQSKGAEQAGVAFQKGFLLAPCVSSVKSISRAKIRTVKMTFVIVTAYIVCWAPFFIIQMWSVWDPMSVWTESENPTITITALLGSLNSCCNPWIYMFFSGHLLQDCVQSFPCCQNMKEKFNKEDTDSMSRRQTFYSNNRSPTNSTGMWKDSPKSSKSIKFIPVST

| IC50 [nM] | Ki [nM] | SMILES |
| --- | --- | --- |
| < 10 |  | Cc1cc(C)cc(CNC(=O)[C@H](CCC(=O)N2CCN(C3CCCCC3)CC2)N2C(=O)[C@@H](N3C(=O)OC[C@@H]3c3ccccc3)[C@H]2/C=C/c2ccccc2)c1 [Example 199] |
| 1.58 | 0.97 | C[C@H](NC(=O)[C@H](CCC(=O)N1CCN(C2CCCCC2)CC1)N1C(=O)[C@@H](N2C(=O)OC[C@@H]2c2ccccc2)[C@H]1/C=C/c1ccccc1)c1ccccc1 [Example 206] |
| 1.83 | 1.12 | O=C(NC1CCc2ccccc21)[C@H](CCC(=O)N1CCN(C2CCCCC2)CC1)N1C(=O)[C@@H](N2C(=O)OC[C@@H]2c2ccccc2)[C@H]1/C=C/c1ccccc1 (stereo partly shown) [Example 216] |
| 1.17 | 0.72 | Cc1cccc(CNC(=O)[C@H](CCC(=O)N2CCN(C3CCCCC3)CC2)N2C(=O)[C@@H](N3C(=O)OC[C@@H]3c3ccccc3)[C@H]2/C=C/c2ccccc2)c1 [Example 193] |
| 4.48 | 2.74 | O=C(NC1(c2ccccc2)CC1)[C@H](CCC(=O)N1CCN(C2CCCCC2)CC1)N1C(=O)[C@@H](N2C(=O)OC[C@@H]2c2ccccc2)[C@H]1/C=C/c1ccccc1 [Example 207] |
| 1 |  | O=C(NCc1cccc(Cl)c1)[C@H](CCC(=O)N1CCN(C2CCCCC2)CC1)N1C(=O)[C@@H](N2C(=O)OC[C@@H]2c2ccccc2)[C@H]1/C=C/c1ccccc1 [Example 187] |
|  | 5.84 | O=C(NCc1cccc(C(F)(F)F)c1)[C@@H](CCC(=O)N1CCN(C2CCCCC2)CC1)N1C(=O)[C@@H](N2C(=O)OC[C@@H]2c2ccccc2)[C@H]1/C=C/c1ccccc1 [Example 139] |
| 8.6 | 5.25 | C[C@@]1(N2C(=O)OC[C@@H]2c2ccccc2)C(=O)N([C@H](CC(=O)N2CCC(N3CCCCC3)CC2)C(=O)NCc2cccc(C(F)(F)F)c2)[C@@H]1/C=C/c1ccccc1 [Example 234A, 4-(Piperidinyl)-piperidinyl 3(R)-[3(S)-(4(S)-phenyloxazolidin-2-on-3-yl)-3-methyl-4(R)-(styr-2-yl)azetidin-2-on-1-yl]-3-[(3-trifluoromethyl)phenylmethylaminocarbonyl]propanoic acid] |
|  | 2.7 | O=C(NC1(c2cccc(F)c2)CCCC1)[C@H](CCC(=O)N1CCN(C2CCCCC2)CC1)N1C(=O)[C@@H](N2C(=O)OC[C@@H]2c2ccccc2)[C@H]1/C=C/c1ccccc1 [Example 221AM] |
| 1.68 | 1.03 | O=C(NCc1cccc(C(F)(F)F)c1)[C@H](CCC(=O)N1CCN(C2CCCCC2)CC1)N1C(=O)[C@@H](N2C(=O)OC[C@@H]2c2ccccc2)[C@H]1CCc1ccccc1 [Example 236, (2S)-[(4-cyclohexylpiperazinyl)carbonylethyl]-2-[3(S)-(4(S)-phenyloxazolidin-2-on-3-yl)-4(R)-(2-phenyleth-1-yl)azetidin-2-on-1-yl]acetic acid N-(3-trifluoromethylbenzyl)amide] |
| 18.1 | 11.1 | O=C(NC(CCO)c1ccccc1)[C@H](CCC(=O)N1CCN(C2CCCCC2)CC1)N1C(=O)[C@@H](N2C(=O)OC[C@@H]2c2ccccc2)[C@H]1/C=C/c1ccccc1 (stereo partly shown) [Example 221Q] |
| 5.37 | 3.29 | O=C(NCc1ccco1)[C@H](CCC(=O)N1CCN(C2CCCCC2)CC1)N1C(=O)[C@@H](N2C(=O)OC[C@@H]2c2ccccc2)[C@H]1/C=C/c1ccccc1 [Example 211] |
| 7.6 | 4.7 | O=C(N[C@@H]1CCCc2ccccc21)[C@H](CCC(=O)N1CCC[C@H]1CN1CCCC1)N1C(=O)[C@@H](N2C(=O)OC[C@@H]2c2ccccc2)[C@H]1/C=C/c1ccccc1 [Example 221Y] |
| < 10 |  | O=C(NCc1ccc(F)c(Cl)c1)[C@H](CCC(=O)N1CCN(C2CCCCC2)CC1)N1C(=O)[C@@H](N2C(=O)OC[C@@H]2c2ccccc2)[C@H]1/C=C/c1ccccc1 [Example 186] |
|  | 3.8 | Cc1ccc(C2(NC(=O)[C@H](CCC(=O)N3CCN(C4CCCCC4)CC3)N3C(=O)[C@@H](N4C(=O)OC[C@@H]4c4ccccc4)[C@H]3/C=C/c3ccccc3)CC2)cc1 [Example 221AP] |
| 37 | 23 | O=C(C[C@@H](C(=O)NCc1cccc(C(F)(F)F)c1)N1C(=O)[C@@H](N2C(=O)OC[C@@H]2c2ccccc2)[C@H]1CCc1ccccc1)NC1CCN(Cc2ccccc2)CC1 [Example 235, 2(S)-[[(1-Benzylpiperidin-4-yl)amino]carbonylmethyl]-2-[3(S)-(4(S)-phenyloxazolidin-2-on-3-yl)-4(R)-(2-phenyleth-1-yl)azetidin-2-on-1-yl]acetic acid N-(3-trifluoromethylbenzyl)amide] |
| 83 | 51 | CC(C)(C)OC(=O)N[C@@H]1CCN(C2CCN(C(=O)CC[C@@H](C(=O)NC3(c4ccccc4)CCCC3)N3C(=O)[C@@H](N4C(=O)OC[C@@H]4c4ccccc4)[C@H]3/C=C/c3ccccc3)CC2)C1 [Example 221AX] |
|  | 3.39 | O=C(NCc1cccc(C(F)(F)F)c1)C(C(=O)N1CCC(N2CCCCC2)CC1)N1C(=O)[C@@H](N2C(=O)OC[C@@H]2c2ccccc2)[C@H]1/C=C/c1ccccc1 (mixture of isomers) [Example 37] |
| 0.95 | 0.58 | Cc1ccc(CNC(=O)[C@H](CCC(=O)N2CCN(C3CCCCC3)CC2)N2C(=O)[C@@H](N3C(=O)OC[C@@H]3c3ccccc3)[C@H]2/C=C/c2ccccc2)o1 [Example 212] |
| < 50 |  | CC(NC(=O)[C@H](CCC(=O)N1CCN(C2CCCCC2)CC1)N1C(=O)[C@@H](N2C(=O)OC[C@@H]2c2ccccc2)[C@H]1/C=C/c1ccccc1)c1ccccc1 (stereo partly shown) [Example 195] |
|  | 6.5 | CCCCN1CCN(C(=O)C(C(=O)NCc2cccc(C(F)(F)F)c2)N2C(=O)[C@@H](N3C(=O)OC[C@@H]3c3ccccc3)[C@H]2/C=C/c2ccccc2)CC1 (mixture of isomers) [Example 40] |
| ~50 |  | CCN1CCC[C@H]1CNC(=O)CC[C@@H](C(=O)N[C@@H]1CCCc2ccccc21)N1C(=O)[C@@H](N2C(=O)OC[C@@H]2c2ccccc2)[C@H]1/C=C/c1ccccc1 [Example 221AI] |
| 5.03 | 3.08 | O=C(N[C@@H]1CCc2ccccc21)[C@H](CCC(=O)N1CCN(C2CCCCC2)CC1)N1C(=O)[C@@H](N2C(=O)OC[C@@H]2c2ccccc2)[C@H]1/C=C/c1ccccc1 [Example 221S] |
|  | 5.12 | O=C(NCc1cccc(C(F)(F)F)c1)[C@H](CC(=O)N1CCCN(Cc2ccccc2)CC1)N1C(=O)[C@@H](N2C(=O)OC[C@@H]2c2ccccc2)[C@H]1/C=C/c1ccccc1 [Example 82] |
| 7.7 | 4.7 | COc1cc(OC)cc(C(C)(C)NC(=O)[C@H](CCC(=O)N2CCN(C3CCCCC3)CC2)N2C(=O)[C@@H](N3C(=O)OC[C@@H]3c3ccccc3)[C@H]2/C=C/c2ccccc2)c1 [Example 218] |
| 1.77 | 1.17 | O=C(NCc1cccc(C(F)(F)F)c1)C(C(=O)N1CCC(CCN2CCCCC2)CC1)N1C(=O)[C@@H](N2C(=O)OC[C@@H]2c2ccccc2)[C@H]1/C=C/c1ccccc1 (mixture of isomers) [Example 42A] |
| ~50 |  | O=C(NC1(c2ccc(Cl)cc2)CCCC1)[C@H](CCC(=O)N1CCN(C2CCCCC2)CC1)N1C(=O)[C@@H](N2C(=O)OC[C@@H]2c2ccccc2)[C@H]1/C=C/c1ccccc1 [Example 221AQ] |

| SMILES | IC50 [nM] | Ki [nM] |
| --- | --- | --- |
| O=C(CC[C@@H](C(=O)NCc1cccc(C(F)(F)F)c1)N1C(=O)C(N2C(=O)OC[C@@H]2c2ccccc2)C1/C(F)=C/c1ccccc1)NC1CN2CCC1CC2 (stereo partly shown) [Example 230F] | ~100 |  |
